The text below walks through data of ChEMBL document CHEMBL1201862, “PubChem BioAssay data set” (2004).

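In this assay, cells in 96-well plates receive the compound at five concentrations for 48 hours. Endpoints are linearly interpolated between the surrounding concentrations. Abbreviation: GI50, concentration required for 50% inhibition of growth.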 Activity calls are given as the source filed them. No stated cut-off is given here; in the data, active = GI50 up to about 1.1 µM and inactive = higher.

Some test systems named below: RXF 631; DLD-1; HOP-18; LXFL 529; XF498; DMS-273; SNB-78; KM-20L2; M19-MEL.
What all share (test): growth of human tumour cells (NCI), 48 h

Turning to `NC1C2(CCCCCC2)NC(=O)C12CCCCCC2` (stereo unspecified), the GI50 with RXF 631, in the assay with DLD-1, in the assay with HOP-18, in the assay with LXFL 529, in the assay on XF498 and in the assay with DMS-273 was > 100 µM (inactive) each time. Besides, in the assay on SNB-78, the GI50 is > 100 µM (inactive).
In the case of `COC(=O)C1C(C(=O)OC)C2C(=O)C3C(C(=O)OC)C(C(=O)OC)C3C(=O)C12` (stereo unspecified), the GI50 with RXF 631, with KM-20L2, in the assay with HOP-18, with LXFL 529, in the assay with XF498 and in the assay on DMS-273 was > 100 µM (inactive) each time. Further, the GI50 with M19-MEL is > 100 µM (inactive); in the assay on SNB-78, 64.3 µM (inactive).
Regarding `COC(=O)CCC1=NOC(CC2CC(CCC(=O)OC)=NO2)C1` (stereo unspecified), the GI50 with RXF 631, in the assay with KM-20L2, in the assay on DLD-1, with HOP-18, in the assay with LXFL 529 and in the assay on XF498 was > 100 µM (inactive) each time. Moreover, the GI50 in the assay on DMS-273, with M19-MEL and with SNB-78 was > 100 µM (inactive) in each case.
For `O=C(Cc1ccccc1)NN1C(=O)C(Cl)C1c1ccccc1O` (stereo unspecified), the GI50 is 4.57 µM (inactive) with KM-20L2; 9.95 µM (inactive) in the assay with DLD-1; 3.82 µM (inactive) with HOP-18; 24.4 µM (inactive) in the assay with LXFL 529; 43.6 µM (inactive) in the assay with XF498; 20.5 µM (inactive) in the assay on DMS-273. The values for the GI50 in the assay with M19-MEL and in the assay with SNB-78 were 19.3 µM (inactive) and 50.7 µM (inactive), respectively.
As for `Cn1cc(C(=O)C[n+]2ccccc2)c2ccccc21`, the GI50 is 33 µM (inactive) in the assay on KM-20L2; > 100 µM (inactive) with DLD-1; > 10 µM (inactive) in the assay on LXFL 529; 86.9 µM (inactive) with XF498; 42.3 µM (inactive) in the assay with DMS-273; 59.8 µM (inactive) in the assay on M19-MEL.
Take `CN/C(=N/C#N)NCc1ccccc1`: the GI50 with KM-20L2, in the assay on DLD-1, in the assay with LXFL 529, in the assay with XF498, in the assay on DMS-273 and in the assay with M19-MEL was > 100 µM (inactive) in each case. Besides, the GI50 with SNB-78 is > 100 µM (inactive).
For `O=C(Cc1nc(-c2ccccc2)cc(=O)n1-c1ccccc1Cl)c1ccncc1`, the GI50 in the assay with RXF 631, in the assay on KM-20L2, in the assay on DLD-1, with HOP-18, with LXFL 529 and with DMS-273 was > 100 µM (inactive) throughout. Further, the GI50 in the assay with M19-MEL and in the assay on SNB-78 was > 100 µM (inactive) in each case.
`Cc1nc2c(o1)C(=O)c1ccccc1/C2=N\c1ccccc1`: the GI50 is > 10 µM (inactive) in the assay with RXF 631; 20.5 µM (inactive) in the assay with KM-20L2; 13.7 µM (inactive) with DLD-1; 1.85 µM (inactive) with HOP-18; 3.23 µM (inactive) in the assay on LXFL 529; 2.86 µM (inactive) in the assay with XF498. Further, the GI50 in the assay with DMS-273 is 2.49 µM (inactive); with M19-MEL it was 1.82 µM (inactive); in the assay with SNB-78, 3.22 µM (inactive).
For the molecule `N#C[C@]12CC3(CC[C@H]1CC1(C2)OCCO1)OCCO3`, the GI50 with RXF 631, with KM-20L2, in the assay with DLD-1, in the assay on HOP-18, in the assay on LXFL 529 and with DMS-273 was > 100 µM (inactive) throughout. In addition, the GI50 in the assay with M19-MEL and in the assay with SNB-78 was > 100 µM (inactive) in each case.
As to `O=C(c1ccccc1)C1OC12C(=O)Nc1c(Cl)cc(Cl)cc12` (stereo unspecified), the GI50 in the assay with RXF 631 is 27 µM (inactive); with KM-20L2, 72.1 µM (inactive); in the assay with DLD-1 it was 18.6 µM (inactive); with HOP-18, > 54.7 µM (inactive); with LXFL 529, 23.6 µM (inactive); with XF498, 10.7 µM (inactive). The GI50 with DMS-273 is 15.9 µM (inactive); with M19-MEL, 27 µM (inactive); in the assay on SNB-78, > 50.5 µM (inactive).
Take `COc1ccc2nc3cc(Cl)ccc3c(SCC(=O)Nc3ccccc3-c3ccccc3NC(=O)CSc3c4ccc(Cl)cc4nc4ccc(OC)cc34)c2c1`: the GI50 in the assay on KM-20L2, in the assay on DLD-1, in the assay on HOP-18, in the assay on LXFL 529, in the assay on XF498 and in the assay on DMS-273 was > 100 µM (inactive) throughout. Also, the GI50 in the assay on M19-MEL and in the assay with SNB-78 was > 100 µM (inactive) each time.
For the molecule `O=C1NC(=O)c2c1n(Cc1ccccc1)c(=O)n2Cc1ccccc1`, the GI50 in the assay on KM-20L2, in the assay with DLD-1, with HOP-18, in the assay with LXFL 529, in the assay on DMS-273 and in the assay on M19-MEL was > 100 µM (inactive) throughout. The GI50 with SNB-78 is > 100 µM (inactive).
As for `CC[C@@]1(O)C(=O)OCc2c1cc1n(c2=O)Cc2c-1nc1ccccc1c2Cl`, the GI50 was 0.216 µM (active) in the assay on KM-20L2; 0.877 µM (active) in the assay with DLD-1; 0.0598 µM (active) in the assay on HOP-18; 0.935 µM (active) with LXFL 529; 0.0767 µM (active) with XF498; < 0.01 µM (active) with DMS-273. Moreover, the GI50 was 0.08 µM (active) in the assay on M19-MEL and 2.65 µM (inactive) in the assay with SNB-78.
With `O=C1NC(=S)NC(=O)C1=Cc1ccc[nH]1`, the GI50 in the assay on KM-20L2 was 5.94 µM (inactive); with DLD-1 it was 6.85 µM (inactive); in the assay with HOP-18, 36.4 µM (inactive); in the assay with LXFL 529, 10.3 µM (inactive); with XF498 it was 17.7 µM (inactive); in the assay on DMS-273, 3.79 µM (inactive). For the same molecule, the figures for the GI50 with M19-MEL and in the assay on SNB-78 were 13.4 µM (inactive) and 19.4 µM (inactive), respectively.
As to `C[N+]1=c2c3cccc4cccc(c(=O)n2CCC1)c43`, the GI50 in the assay with KM-20L2 is 20 µM (inactive); in the assay with DLD-1, 21.4 µM (inactive); in the assay with HOP-18, 53.8 µM (inactive); with LXFL 529 it was 17.6 µM (inactive); with XF498, 18.6 µM (inactive); with DMS-273, 24.4 µM (inactive). In addition, the GI50 was 17.9 µM (inactive) in the assay on M19-MEL and 29 µM (inactive) in the assay on SNB-78.
`Cc1ccc(S(=O)(=O)Nc2cccc(C)c2C)cc1`: the GI50 in the assay with RXF 631 is 66.1 µM (inactive); with HOP-18 it was > 100 µM (inactive); with LXFL 529, 56.2 µM (inactive); in the assay on XF498, < 0.01 µM (active); in the assay with DMS-273, 45.6 µM (inactive); in the assay on M19-MEL it was 67.5 µM (inactive). For the same molecule, in the assay with SNB-78, the GI50 was 62.1 µM (inactive).
Consider `[O-][Cl+3]([O-])([O-])O.c1ccc(/N=c2\snc(-c3ccccc3)s2)cc1`, for which the GI50 in the assay on KM-20L2, in the assay with DLD-1, in the assay with HOP-18, with LXFL 529, in the assay on DMS-273 and in the assay on M19-MEL was > 100 µM (inactive) in each case. In addition, in the assay with SNB-78, the GI50 is > 100 µM (inactive).
Regarding `C=C(C[N+](C)(C)C)N/N=C/c1oc(-c2ccc(OC)c(OC)c2)c(-c2ccc(OC)c(OC)c2)c1[N+](=O)[O-]`, the GI50 in the assay on KM-20L2 is 31.7 µM (inactive); in the assay with DLD-1 it was 19.9 µM (inactive); in the assay with HOP-18 it was 22.1 µM (inactive); in the assay on LXFL 529, 22.9 µM (inactive); in the assay on XF498, 23.7 µM (inactive); in the assay with M19-MEL it was 15.5 µM (inactive). Further, the GI50 in the assay with SNB-78 was 36.4 µM (inactive).
For the molecule `COC(=O)c1c(O)ccc(O)c1C(C(C)=O)C(C)=O`, the GI50 in the assay with DLD-1, in the assay with LXFL 529, in the assay with XF498, with DMS-273, in the assay on M19-MEL and with SNB-78 was > 100 µM (inactive) throughout.
On to `CC1=C(C(=O)Nc2ccccc2C)C(c2ccccc2C)C(C(=O)Nc2ccccc2C)=C(C)N1`, for which the GI50 in the assay on RXF 631 was 26.1 µM (inactive); in the assay with KM-20L2, 20.9 µM (inactive); in the assay on DLD-1, 14.7 µM (inactive); in the assay on HOP-18, 18.4 µM (inactive); with LXFL 529, > 10 µM (inactive); in the assay with XF498, 18.7 µM (inactive). The GI50 in the assay with M19-MEL is 21.7 µM (inactive); in the assay with SNB-78 it was 33 µM (inactive).
Regarding `O=C1c2c(O)cccc2C(C(=O)CCCCC(=O)C2c3cccc(O)c3C(=O)c3c(O)cccc32)c2cccc(O)c21`, the GI50 in the assay with RXF 631 is 0.78 µM (active); in the assay on KM-20L2, 0.918 µM (active); with DLD-1, 1.04 µM (active); with HOP-18, 0.652 µM (active); in the assay on LXFL 529, 0.441 µM (active); in the assay with XF498, 0.501 µM (active). In addition, the GI50 is 1.63 µM (inactive) with DMS-273 and 0.55 µM (active) in the assay with SNB-78.
`CCOC(=O)c1[nH]c(CN(C)Cc2[nH]c(C(=O)OCC)c(C)c2C(=O)OCc2ccccc2)c(C(=O)OCc2ccccc2)c1C`: the GI50 in the assay on RXF 631 was 4.11 µM (inactive); in the assay on KM-20L2, 3.04 µM (inactive); in the assay on DLD-1 it was 33.9 µM (inactive); in the assay with HOP-18, > 100 µM (inactive); with LXFL 529, 13.1 µM (inactive); in the assay on DMS-273, 10 µM (inactive). For the same molecule, the GI50 in the assay on SNB-78 is > 100 µM (inactive).
As for `CNC1=Nc2ccc(Cl)cc2C(c2ccccc2)=NN1C`, the GI50 was 74 µM (inactive) in the assay with RXF 631; > 100 µM (inactive) in the assay on KM-20L2; > 100 µM (inactive) with DLD-1; > 100 µM (inactive) in the assay with LXFL 529; 31.6 µM (inactive) in the assay with XF498; > 100 µM (inactive) with DMS-273. For the same molecule, the GI50 in the assay on M19-MEL and in the assay with SNB-78 was > 100 µM (inactive) in each case.
With `C[N+]12c3ccccc3O[B-]1(c1ccccc1)Oc1ccccc12` (stereo unspecified), the GI50 with DLD-1 was 18.2 µM (inactive); in the assay with HOP-18, 42.9 µM (inactive); with LXFL 529, 28.4 µM (inactive); in the assay with DMS-273, 29.2 µM (inactive); with SNB-78 it was 47 µM (inactive).
